Assay results published in patent publication US7510851B2, “Compositions and methods for diagnosing and treating diabetes, insulin resistance and dyslipidemia” (Metabolex, Inc., priority 2001, dated 2009).

What was measured:
[1] = test system: aP2 reporter gene (endogenous PPAR); test: cell-based natural PPAR-responsive promoter (aP2) reporter gene assay; parameters: species or system mouse
Protocol: Prostaglandin D2 and 9α,11β-PGF2α were assayed in cell-based assays (ex vivo) designed to detect activation of a natural PPAR responsive promoter. The assay uses the promoter region of the mouse aP2 gene, which contains binding sites for PPARs (both PPAR alpha and gamma) coupled to a reporter gene. Binding of a ligand to endogenous PPAR results in activation of the aP2 reporter gene.

[2] = target: T1, PPAR alpha (Homo sapiens, UniProt Q07869); test: cell-based PPAR ligand activity reporter assay (PPAR ligand-binding domain coupled to heterologous DNA binding domain); details: reporter gene expression
T1 construct: expressed in transfected cells
T1 sequence (Q07869 239-466 limits assumed): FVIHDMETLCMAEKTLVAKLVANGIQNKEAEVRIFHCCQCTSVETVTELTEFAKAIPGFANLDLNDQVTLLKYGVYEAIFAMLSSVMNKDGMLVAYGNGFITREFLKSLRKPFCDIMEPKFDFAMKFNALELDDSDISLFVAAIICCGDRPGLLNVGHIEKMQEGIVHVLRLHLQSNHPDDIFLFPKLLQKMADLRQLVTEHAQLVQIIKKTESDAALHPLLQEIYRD
Protocol: (§1) Prostaglandin D2 and 9α,11β-PGF2α were assayed in cell-based assays (ex vivo) designed to detect PPAR ligand activity. The assay uses a recombinant protein consisting of a PPAR ligand-binding domain coupled to a heterologous DNA binding domain. See, e.g., Reginato, et. al., J. Biol. Chem. 273:32679 (1998). Binding of a ligand to the PPAR binding domain drives expression of a reporter gene.

[3] = target: T2, PPAR gamma (Homo sapiens, UniProt P37231); test: as above; details: reporter gene expression
T2 construct: expressed in transfected cells
T2 sequence (P37231 238-503 limits assumed): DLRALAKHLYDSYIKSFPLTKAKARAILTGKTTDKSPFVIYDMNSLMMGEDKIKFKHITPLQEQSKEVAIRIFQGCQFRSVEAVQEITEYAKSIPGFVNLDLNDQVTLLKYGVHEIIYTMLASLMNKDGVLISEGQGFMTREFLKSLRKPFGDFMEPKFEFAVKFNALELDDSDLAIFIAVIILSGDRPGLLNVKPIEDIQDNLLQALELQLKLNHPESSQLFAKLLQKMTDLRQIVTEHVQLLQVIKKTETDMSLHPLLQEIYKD
Protocol: as §1

[4] = test system: mouse 3T3-L1 adipocytes; test: glucose transport in 3T3-L1 adipocytes; type: cell-based; details: treatment for 40 hours
[5] = test system: PDHK4; test: Taqman PCR expression in treated 3T3-L1 adipocytes; type: cell-based, mouse; details: for PDHK4 fold change: Taqman, 3T3-L1 adipocytes treated with rosiglitazone, PGD2 or 9α,11β-PGF2α; for up regulation of PDHK4, fold: Taqman PCR with SYBR green detection, verification of chip data
Description: (§2) Primers were designed against murine RGS2 and murine PDHK4 and the gene expression changes observed with the standard mouse chips were verified using Taqman PCR with SYBR green detection. Treatment of cells with pioglitazone, rosiglitazone or troglitazone caused a down regulation of RGS2 by 0.47 fold, 0.41 fold and 0.55 fold, respectively.
(§3) Taqman primers were used to analyze the expression of RGS2 and PDHK4 in mouse 3T3-L1 adipocytes treated with rosiglitazone, PGD2 and 9α,11β-PGF2α. […] In contrast, the fold change with 9α,11β-PGF2α was 0.75. […] In contrast, the fold change with 9α,11β-PGF2α was 0.77.

[6] = test system: RGS2; test: Taqman PCR expression in treated 3T3-L1 adipocytes; type: cell-based, mouse; details: for RGS2 fold change: Taqman, 3T3-L1 adipocytes treated with rosiglitazone, PGD2 or 9α,11β-PGF2α; for down regulation of RGS2, fold: Taqman PCR with SYBR green detection, verification of chip data
Description: as §2, §3

[7] = test system: 3T3-L1 adipocytes; test: insulin-stimulated glucose transport (3H-2-deoxyglucose) in adenovirus-infected 3T3-L1 adipocytes; type: cell-based, mouse; details: cells infected with control virus, 4 μM PGD2 for 20 hours
Protocol: 3T3-L1 adipocytes were infected with either control adenovirus or recombinant adenovirus encoding the four human AKR1C isoforms and incubated 20 hours to allow for protein expression. Cells were then treated 20 hours with 4 μM PGD2 and glucose transport in the absence and presence of insulin was measured.

[8] = test system: RGS2 mRNA; test: standard mouse micro-array expression in treated 3T3-L1 adipocytes; type: cell-based
Description: (§4) For RGS2 we observed down-regulation as follows; pioglitazone 0.29 fold p<0.00009, rosiglitazone 0.25 fold p<0.00003, troglitazone, 0.27 fold p<0.00085. […] As such these regulations are reflective of endogenous PPAR activation of endogenous genes.

[9] = test system: pyruvate dehydrogenase kinase 4 mRNA (PDHK4); test: as above; type: cell-based
Description: as §4

| Structure (SMILES) | activation of the aP2 reporter gene [1] | activation of PPAR alpha [2] | activation of PPAR gamma [3] | effect on glucose transport [4] | PDHK4 fold change [5] | RGS2 fold change [6] | effect on insulin-stimulated glucose transport [7] | up regulation of PDHK4, fold [5] | down regulation of RGS2, fold [6] | RGS2 mRNA down-regulation, fold [8] | PDHK4 mRNA up regulation, fold [9] |
| --- | --- | --- | --- | --- | --- | --- | --- | --- | --- | --- | --- |
| CCCCC[C@H](O)/C=C/[C@@H]1[C@@H](C/C=C\CCCC(=O)O)[C@@H](O)C[C@@H]1O [9α,11β-PGF2α, 9α,11β-prostaglandin F2α] | without effect | without effect | without effect | no effect on glucose transport | 0.77 fold change | 0.75 fold change | – | – | – | – | – |
| CCCCC[C@H](O)/C=C/[C@H]1C(=O)C[C@H](O)[C@@H]1C/C=C\CCCC(=O)O [PGD2, prostaglandin D2] | Significant activation | Significant activation | Significant activation | enhances glucose transport to similar levels as those observed with the PPAR ligand rosiglitazone | 2.39 fold change | 0.29 fold change | enhances insulin-stimulated glucose transport | – | – | – | – |
| CCc1ccc(CCOc2ccc(CC3SC(=O)NC3=O)cc2)nc1 (stereo not drawn) [pioglitazone] | – | – | – | – | – | – | – | 4.9 fold | 0.47 fold | 0.29 fold | 3.13 fold |
| CN(CCOc1ccc(CC2SC(=O)NC2=O)cc1)c1ccccn1 (stereo not drawn) [rosiglitazone] | – | – | – | – | 3.73 fold change | 0.20 fold change | – | 5.45 fold | 0.41 fold | 0.25 fold | 3.16 fold |
| Cc1c(C)c2c(c(C)c1O)CCC(C)(COc1ccc(CC3SC(=O)NC3=O)cc1)O2 (stereo not drawn) [troglitazone] | – | – | – | – | – | – | – | 5.5 fold | 0.55 fold | 0.27 fold | 3.2 fold |
